# Test results: patent publication US9540350B2, “1-substituted, 4-(substituted phenoxymethyl)-1,2,3-triazole compounds with antifungal properties and methods for preparation thereof” (FDC LIMITED, priority 2013, dated 2017)
# Read-outs that look alike come from different tables or passages of the source.
# Key:
# [1] = system: C. albicans ATCC 24433; assay: Antifungal susceptibility, broth dilution MIC (CLSI M27-A2); format: cell-based; settings: Candida albicans, read-out: Activity against organisms (MIC50) Ca01
# Method: (§1) The compounds of Formula 1 were tested for antifungal activity against Candida albicans, C. glabrata, C. krusei, C. tropicalis, Cryptococcus neoformans, Aspergillus fumigatus, A. niger and Fusarium proliferatum. In vitro evaluation of antifungal activity was performed by determining the minimum inhibitory concentration (MIC) following standard methods (CLSI: Reference method for broth dilution antifungal susceptibility testing of yeasts; Approved standard, second edition M27-A2, 2002; CLSI: Reference method for broth dilution antifungal susceptibility testing of filamentous fungi; Approved standard M38-A, 2002). Anti-fungal susceptibility testing of these anti-fungal compounds was done by broth dilution method using RPMI 1640 medium with MOPS buffer. Known anti-fungal agent fluconazole was used as positive control. End points were determined after 48 hours visually and by using spectrophotometer wherever necessary. Different dilutions were tried and various sets of experiments performed. The activity parameters are enumerated in Table 4.
# [2] = system: C. glabrata ATCC 90030; assay: as above; format: cell-based, Candida glabrata; settings: Nakaseomyces glabratus, read-out: Activity against organisms (MIC50) Cg01
# Method: as §1
# [3] = system: C. krusei ATCC 6258; assay: as above; format: cell-based, Candida krusei; settings: Pichia kudriavzevii, read-out: Activity against organisms (MIC50) Ck01
# Method: as §1
# [4] = system: C. tropicalis ATCC 750; assay: as above; format: cell-based, Candida tropicalis; settings: Candida tropicalis, read-out: Activity against organisms (MIC50) Ct01
# Method: as §1
# [5] = system: C. neoformans ATCC 34664; assay: as above; format: cell-based, Cryptococcus neoformans; settings: Cryptococcus neoformans, read-out: Activity against organisms (MIC50) Cn01
# Method: as §1
# [6] = system: A. fumigatus ATCC 46645; assay: Antifungal susceptibility, broth dilution MIC (CLSI M38-A); format: cell-based; settings: Aspergillus fumigatus, read-out: Activity against organisms (MIC50) Afm01
# Method: as §1
# [7] = system: A. niger ATCC 16404; assay: as above; format: cell-based; settings: Aspergillus niger, read-out: Activity against organisms (MIC50) An01
# Method: as §1
# [8] = system: F. proliferatum ATCC 10052; assay: as above; format: cell-based; settings: Fusarium proliferatum, read-out: Activity against organisms (MIC50) Fp01
# Method: as §1
# [9] = ATCC24433, C. albicans ATCC 24433, broth dilution, RPMI 1640 with MOPS, 48 hours
# [10] = ATCC90030, C. glabrata ATCC 90030, broth dilution, RPMI 1640 with MOPS, 48 hours
# [11] = ATCC6258, C. krusei ATCC 6258, broth dilution, RPMI 1640 with MOPS, 48 hours
# [12] = ATCC750, C. tropicalis ATCC 750, broth dilution, RPMI 1640 with MOPS, 48 hours
# [13] = ATCC34664, C. neoformans ATCC 34664, broth dilution, RPMI 1640 with MOPS, 48 hours
# [14] = ATCC46645, A. fumigatus ATCC 46645, broth dilution, RPMI 1640 with MOPS, 48 hours
# [15] = ATCC16404, A. niger ATCC 16404, broth dilution, RPMI 1640 with MOPS, 48 hours
# [16] = ATCC10052, F. proliferatum ATCC 10052, broth dilution, RPMI 1640 with MOPS, 48 hours
SMILES,"MIC50 [1, 9] [µg/mL]","MIC50 [2, 10] [µg/mL]","MIC50 [3, 11] [µg/mL]","MIC50 [4, 12] [µg/mL]","MIC50 [5, 13] [µg/mL]","MIC50 [6, 14] [µg/mL]","MIC50 [7, 15] [µg/mL]","MIC50 [8, 16] [µg/mL]","MIC50 ([1]; ATCC24433, 48 h) [µg/mL]","MIC50 ([2]; ATCC90030, 48 h) [µg/mL]","MIC50 ([3]; ATCC6258, 48 h) [µg/mL]","MIC50 ([4]; ATCC750, 48 h) [µg/mL]","MIC50 ([5]; ATCC34664, 48 h) [µg/mL]","MIC50 ([6]; ATCC46645, 48 h) [µg/mL]","MIC50 ([7]; ATCC16404, 48 h) [µg/mL]","MIC50 ([8]; ATCC10052, 48 h) [µg/mL]"
"COc1ccc(/C=C/C(=O)c2ccc(OCc3cn(CC(O)(Cn4cncn4)c4ccc(F)cc4F)nn3)cc2)cc1 (centres unmarked) [Compound 1A-2, (E)-1-(4-((1-(2-(2,4-Difluorophenyl)-2-hydroxy-3-(1H-1,2,4-triazol-1-yl)propyl)-1H-1,2,3-triazol-4-yl)methoxy)phenyl)-3-(4-methoxyphenyl)prop-2-en-1-one]",0.25,1,8,2,1,> 4,> 4,> 4,–,–,–,–,–,–,–,–
"Cc1ccc(/C=C/C(=O)c2ccc(OCc3cn(CC(O)(Cn4cncn4)c4ccc(F)cc4F)nn3)cc2)cc1 (centres unmarked) [Compound 1A-3, (E)-1-(4-((1-(2-(2,4-Difluorophenyl)-2-hydroxy-3-(1H-1,2,4-triazol-1-yl)propyl)-1H-1,2,3-triazol-4-yl)methoxy)phenyl)-3-(4-methylphenyl)prop-2-en-1-one]",0.25,0.25,4,2,0.5,> 4,> 4,> 4,–,–,–,–,–,–,–,–
"CC(=O)/C=C/c1ccc(OCc2cn(CC(O)(Cn3cncn3)c3ccc(F)cc3F)nn2)cc1 (centres unmarked) [Compound 1B-3, (E)-4-(4-((1-(2-(2,4-Difluorophenyl)-2-hydroxy-3-(1H-1,2,4-triazol-1-yl)propyl)-1H-1,2,3-triazol-4-yl)methoxy)phenyl)but-3-en-2-one]",–,–,–,–,–,–,–,–,0.12,0.5,16,1,2,> 64,> 64,> 64
"CCCCCN1CCN(c2ccc(C(=O)/C=C/c3ccc(OCc4cn(CC(O)(Cn5cncn5)c5ccc(F)cc5F)nn4)cc3)cc2)CC1 (centres unmarked) [Compound 1B-7, (E)-3-(4-((1-(2-(2,4-Difluorophenyl)-2-hydroxy-3-(1H-1,2,4-triazol-1-yl)propyl)-1H-1,2,3-triazol-4-yl)methoxy)phenyl)-1-(4-(4-n-pentylpiperazin-1-yl)phenyl)-prop-2-en-1-one]",0.5,0.5,8,2,2,> 2,> 2,> 2,–,–,–,–,–,–,–,–
"COc1ccc(CN2CCN(c3ccc(C(=O)/C=C/c4ccc(OCc5cn(CC(O)(Cn6cncn6)c6ccc(F)cc6F)nn5)cc4)cc3)CC2)cc1 (centres unmarked) [Compound 1B-8, (E)-3-(4-((1-(2-(2,4-Difluorophenyl)-2-hydroxy-3-(1H-1,2,4-triazol-1-yl)propyl)-1H-1,2,3-triazol-4-yl)methoxy)phenyl)-1-(4-(4-(4-methoxybenzyl)piperazin-1-yl)phenyl)prop-2-en-1-one]",0.12,0.12,2,0.5,0.5,> 8,> 8,> 8,–,–,–,–,–,–,–,–
"C=C=CCOc1ccc(/C=C/C(=O)/C=C/c2ccc(OCc3cn(CC(O)(Cn4cncn4)c4ccc(F)cc4F)nn3)cc2)cc1 (centres unmarked) [Compound 1B-9, (1E,4E)-1-(4-(Buta-2,3-dienyloxy)phenyl)-5-(4-((1-(2-(2,4-difluorophenyl)-2-hydroxy-3-(1H-1,2,4-triazol-1-yl)propyl)-1H-1,2,3-triazol-4-yl)methoxy)phenyl)penta-1,4-dien-3-one]",0.25,0.5,2,1,0.25,> 2,> 2,> 2,–,–,–,–,–,–,–,–

# Further molecules by falling MIC50 [1, 9], results first:
"MIC50 [1, 9] [µg/mL]","MIC50 [2, 10] [µg/mL]","MIC50 [3, 11] [µg/mL]","MIC50 [4, 12] [µg/mL]","MIC50 [5, 13] [µg/mL]","MIC50 [6, 14] [µg/mL]","MIC50 [7, 15] [µg/mL]","MIC50 [8, 16] [µg/mL]",SMILES,"MIC50 ([1]; ATCC24433, 48 h) [µg/mL]","MIC50 ([2]; ATCC90030, 48 h) [µg/mL]","MIC50 ([3]; ATCC6258, 48 h) [µg/mL]","MIC50 ([4]; ATCC750, 48 h) [µg/mL]","MIC50 ([5]; ATCC34664, 48 h) [µg/mL]","MIC50 ([6]; ATCC46645, 48 h) [µg/mL]","MIC50 ([7]; ATCC16404, 48 h) [µg/mL]","MIC50 ([8]; ATCC10052, 48 h) [µg/mL]"
0.12,0.12,4,1,0.5,> 8,> 8,> 8,"O=C(/C=C/c1ccccc1)c1ccc(OCc2cn(CC(O)(Cn3cncn3)c3ccc(F)cc3F)nn2)cc1 (centres unmarked) [Compound 1A-1, (E)-1-(4-((1-(2-(2,4-Difluorophenyl)-2-hydroxy-3-(1H-1,2,4-triazol-1-yl)propyl)-1H-1,2,3-triazol-4-yl)methoxy)phenyl)-3-phenylprop-2-en-1-one]",–,–,–,–,–,–,–,–
0.12,0.5,4,1,0.5,> 8,> 8,> 8,"O=C(/C=C/c1cccs1)c1ccc(OCc2cn(CC(O)(Cn3cncn3)c3ccc(F)cc3F)nn2)cc1 (centres unmarked) [Compound 1A-4, (E)-1-(4-((1-(2-(2,4-Difluorophenyl)-2-hydroxy-3-(1H-1,2,4-triazol-1-yl)propyl)-1H-1,2,3-triazol-4-yl)methoxy)phenyl)-3-(2-thienyl)prop-2-en-1-one]",–,–,–,–,–,–,–,–
0.12,0.5,4,1,1,> 4,> 4,> 4,COc1ccc(C(=O)/C=C/c2ccc(OCc3cn(CC(O)(Cn4cncn4)c4ccc(F)cc4F)nn3)cc2)cc1 (centres unmarked) [Compound 1B-1],–,–,–,–,–,–,–,–
0.12,0.5,> 32,2,1,> 32,> 32,> 32,"O=C(/C=C/c1ccc(OCc2cn(CC(O)(Cn3cncn3)c3ccc(F)cc3F)nn2)cc1)C1CC1 (centres unmarked) [Compound 1B-4, (E)-1-(Cyclopropyl)-3-(4-((1-(2-(2,4-difluorophenyl)-2-hydroxy-3-(1H-1,2,4-triazol-1-yl)propyl)-1H-1,2,3-triazol-4-yl)methoxy)phenyl)prop-2-en-1-one]",–,–,–,–,–,–,–,–
0.12,0.5,> 4,0.5,1,> 4,> 4,> 4,"CCCCN1CCN(c2ccc(C(=O)/C=C/c3ccc(OCc4cn(CC(O)(Cn5cncn5)c5ccc(F)cc5F)nn4)cc3)cc2)CC1 (centres unmarked) [Compound 1B-6, (E)-1-(4-(4-n-Butylpiperazin-1-yl)phenyl)-3-(4-((1-(2-(2,4-difluorophehyl)-2-hydroxy-3-(1H-1,2,4-triazol-1-yl)propyl)-1H-1,2,3-triazol-4-yl)methoxy)phenyl)prop-2-en-1-one]",–,–,–,–,–,–,–,–
0.06,0.5,4,2,0.25,> 4,> 4,> 4,"O=C(/C=C/c1ccc(OCc2cn(CC(O)(Cn3cncn3)c3ccc(F)cc3F)nn2)cc1)c1ccc(F)cc1 (centres unmarked) [Compound 1B-2, (E)-3-(4-((1-(2-(2,4-Difluorophenyl)-2-hydroxy-3-(1H-1,2,4-triazol-1-yl)propyl)-1H-1,2,3-triazol-4-yl)methoxy)phenyl)-1-(4-fluorophenyl)prop-2-en-1-one]",–,–,–,–,–,–,–,–
0.06,0.5,> 4,0.5,1,> 4,> 4,> 4,"CCCN1CCN(c2ccc(C(=O)/C=C/c3ccc(OCc4cn(CC(O)(Cn5cncn5)c5ccc(F)cc5F)nn4)cc3)cc2)CC1 (centres unmarked) [Compound 1B-5, (E)-3-(4-((1-(2-(2,4-Difluorophenyl)-2-hydroxy-3-(1H-1,2,4-triazol-1-yl)propyl)-1H-1,2,3-triazol-4-yl)methoxy)phenyl)-1-(4-(4-propylpiperazin-1-yl)phenyl)prop-2-en-1-one]",–,–,–,–,–,–,–,–
